Assay results taken from US20090004211A1, “METHOD FOR EFFECTING LOCALIZED, NON-SYSTEMIC AND SYSTEMIC, IMMUNOGENIC TREATMENT OF CANCER USING ERP57 TRANSLOCATION” (priority 2006, published 2009).

Key:
[1] = test system: CT26 tumor cells; experiment: Anti-tumor vaccination: treated dying CT26 cells injected s.c., challenge with live tumor cells in opposite flank; type: in vivo, BALB/c mice; details: CT26 cells treated in vitro with agent alone, immunocompetent BALB/c mice
[2] = test system: CRT; experiment: Biotinylation of cell surface proteins, 2D gel electrophoresis and mass spectrometry: CRT; type: cell-based, mouse; details: 4 h treatment, vs untreated cells
Experimental: Biotinylation and recovery of cell surface proteins were performed with a method adopted from Gottardi et al. (Gottardi, C. J. et al., “Biotinylation and assessment of membrane polarity: caveats and methodological concerns,” Am J Physiol 268, F285-295 (1995)) and Hanwell et al. (Hanwell, D. et al., “Trafficking and cell surface stability of the epithelial Na+ channel expressed in epithelial Madin-Darby canine kidney cells,” J Biol Chem 277, 9772-9779 (2002)). Briefly, 20×10^6 CT26 cells grown on 75 cm^2 flask were placed on ice and washed three times with ice-cold PBS-Ca^2+—Mg^2+ (PBS with 0.1 mM CaCl2 and 1 mM MgCl2). Membrane proteins were then biotinylated by a 30-minute incubation at 4° C. with NHS-SS-biotin 1.25 mg/ml freshly diluted into biotinylation buffer (10 mM triethanolamine, 2 mM CaCl2, 150 mM NaCl, pH 7.5) with gentle agitation. CT26 cells were rinsed with PBS-Ca^2+—Mg^2++glycine (100 mM) and washed in this buffer for 20 minutes at 4° C. to quench unreacted biotin. The cells were then rinsed twice with PBS-Ca^2+—Mg^2+, scraped in cold PBS, and pelleted at 2,000 rpm at 4° C. The pellets were solubilized for 45 min in […] of lysis buffer (1% Triton X-100, 150 mM NaCl, 5 mM EDTA, 50 mM Tris, pH 7.5) containing protease inhibitors. […]

[3] = test system: ERP57; experiment: Biotinylation of cell surface proteins, 2D gel electrophoresis and mass spectrometry: ERP57; type: cell-based, mouse; details: 4 h treatment, vs untreated cells
Experimental: Biotinylation and recovery of cell surface proteins were performed with a method adopted from Gottardi et al. (Gottardi, C. J. et al., “Biotinylation and assessment of membrane polarity: caveats and methodological concerns,” Am J Physiol 268, F285-295 (1995)) and Hanwell et al. (Hanwell, D. et al., “Trafficking and cell surface stability of the epithelial Na+ channel expressed in epithelial Madin-Darby canine kidney cells,” J Biol Chem 277, 9772-9779 (2002)). Briefly, 20×10^6 CT26 cells grown on 75 cm^2 flask were placed on ice and washed three times with ice-cold PBS-Ca^2+—Mg^2+ (PBS with 0.1 mM CaCl2 and 1 mM MgCl2). Membrane proteins were then biotinylated by a 30-minute incubation at 4° C. with NHS-SS-biotin 1.25 mg/ml freshly diluted into biotinylation buffer (10 mM triethanolamine, 2 mM CaCl2, 150 mM NaCl, pH 7.5) with gentle agitation. CT26 cells were rinsed with PBS-Ca^2+—Mg^2++glycine (100 mM) and washed in this buffer for 20 minutes at 4° C. to quench unreacted biotin. The cells were then rinsed twice with PBS-Ca^2+—Mg^2+, scraped in cold PBS, and pelleted at 2,000 rpm at 4° C. The pellets were solubilized for 45 min in […] of lysis buffer (1% Triton X-100, 150 mM NaCl, 5 mM EDTA, 50 mM Tris, pH 7.5) containing protease inhibitors. The lysates were clarified by centrifugation at 14,000×g for 10 min at 4° C., and the supernatants were incubated overnight with packed streptavidin-agarose beads to recover biotinylated proteins. The beads were then pelleted by centrifugation, and aliquots of supernatants were taken to represent the unbound, intracellular pool of proteins. Biotinylated proteins were eluted from the beads by heating to 100° C. for 5 minutes in SDS-PAGE sample buffer before loading onto a 10% SDS-PAGE gel as described above. To ensure the absence of leakage of biotin into the cells, the absence of the intracellular protein actin and GAPDH in biotinylated extracts was systematically verified.
Purified proteins were precipitated using the Ettan 2-D clean up kit were subsequently resuspended in urea buffer (7M urea, 2M thiourea, 2% Chaps, 1% Sulfobetaine SB3-10, 1% Amidosulfobetaine ASB14, 50 mM DTT). For the first dimension of protein separation, isoelectric focusing (IEF) was performed using 18-cm immobilized nonlinear pH gradient strips (pH 3 to 10; GE Healthcare) on a electrophoresis unit. […]

[4] = test system: CT26 cells; experiment: Phagocytosis assay: uptake of treated tumor cells by dendritic cells; type: cell-based, mouse; details: before apoptotic changes
Experimental: BM cells were flushed from the tibias and femurs of BALB/c mice with culture medium composed of RPMA 1640 medium supplemented with 10% heat-inactivated FBS, sodium pyruvate, […] 2-ME. 10 mM HEPES (pH 7.4), and penicillin/streptomycin. After one centrifugation, BM cells were resuspended in Tris-ammonium chloride for 2 min to lyse RBC. After one more centrifugation, BM cells (1×10^6 cells/ml) were cultured in medium supplemented with 100 ng/ml recombinant mouse FLT3 ligand in 6-well plates. […] In 12-well plates, […] adherent CT26 cells were labeled with Celltracker Orange and then incubated with drugs. […] Alternatively CT26 cells were coated with 3 μg/10^6 cells of rCRT on ice for 30 minutes and washed twice prior to addition to dendritic cells. Cells were then harvested, washed three times with medium supplemented with FBS and cocultured with immature DC for 2 hours at a ratio of 1:1 and 1:5. At the end of the incubation, cells were harvested with Versene, pooled with non-adherent cells present in the supernatant, washed and stained with CD11c-FITC antibody. Phagocytosis was assessed by FACS analysis of double positive cells. Phagocytic indexes refer to the ratio between values obtained at […] of co-incubation between DC and tumor cells. Trypsinized CT26 cells were enucleated as described. Briefly, cells were treated in 2 ml of complete RPMI medium containing cytochalasin B (10 μg/ml; Sigma) and DNase I (80 U/ml; Sigma). Cell suspension was adjusted to a final concentration of 5×10^6/ml and incubated at 37° C. for 45 minutes before being layered onto a previously prepared discontinuous Ficoll density gradient (3 ml of 100%, in 1 ml of 90% and 3 ml of 55% Ficoll Paque layer containing 5 μg/ml cytochalasin B and 40 U/ml DNase I; gradients were prepared in ultracentrifuge tubes and pre-equilibrated at 37° C. in a CO2 incubator overnight). Gradients containing cell suspensions were centrifugated in a prewarmed SW41 Beckman rotor at 25 000 rpm for 20 minutes at 30° C. The cytoplasts-enriched fraction was collected from the interface between 90 and 100% Ficoll layers, washed in complete RPMI 1640 medium, and incubated at 37° C. The cells were incubated with mitoxantrone (MTX), calyculin (CA), salubrinal (Sal) and toutomycin (TA) for the period of time indicated in the experiment. […] Alternatively cythoplasts were cocultured with immature DC for 2 hours at a ratio of 1:1 and 1:5. At the end of the incubation, cells were harvested with versene, pooled with non-adherent cells present in the supernatant, washed and stained with CD11c-FITC antibody. Phagocytosis was assessed by FACS analysis of double positive cells.

[5] = test system: CRT; experiment: Fluorescence detection of cell surface CRT (cytofluorometry); details: intact cells
Experimental: CT26 cells (on a glass slide or in 12-well plates) were first washed with FACS buffer (1×PBS, 5% fetus bovine serum, and 0.1% sodium azide) and then incubated with rabbit anti-mouse CRT antibody (1:100, Stressgen), or rabbit anti-mouse ERP57 antibody (abcam) in FACS buffer at 4° C. for 30 min. […] After washing three times with FACS buffer, surface CRT and ERP57 was detected by cytofluorometric analysis on a FACS Vantage. In some experiments, cells were fixed with 4% paraformaldehyde, counterstained with Hoechst (2 μM; Sigma), followed by fluorescence microscopic assessment.
Trypsinized CT26 cells were enucleated as described. Briefly, cells were treated in 2 ml of complete RPMI medium containing cytochalasin B (10 μg/ml; Sigma) and DNase I (80 U/ml; Sigma). […] Gradients containing cell suspensions were centrifugated in a prewarmed SW41 Beckman rotor at 25 000 rpm for 20 minutes at 30° C. […] Then the cell surface CRT was detected (see materials and methods) and the viability was determined by with propidium iodine staining (2 μg/ml, Sigma) for 5 min followed by cytofluorometric analysis.

COc1cccc2c1C(=O)c1c(O)c3c(c(O)c1C2=O)C[C@@](O)(C(=O)CO)C[C@@H]3O[C@H]1C[C@H](N)[C@H](O)[C@H](C)O1 [doxorubicin]
immunogenicity of cell death (protection against tumor growth on rechallenge) [1]: elicited immunogenic cell death
induction of surface CRT, factor [2]: 6
induction of surface ERP57 spot 1, factor [3]: 4.1
induction of surface ERP57 spot 2, factor [3]: 3.4
induction of surface ERP57 spot 3, factor [3]: 8
induction of surface ERP57 spot 4, factor [3]: 8.1
time after treatment at which tumor cells are phagocytosed by DC [4]: within a few hours after treatment
time after treatment at which CRT exposure is detectable [5]: 1 h
